Laboratory results published in US20230048349A1, “RECIRCULATING AQUACULTURE SYSTEM AND METHODS THEREOF” (THE TEXAS A&M UNIVERSITY SYSTEM, priority 2021, published 2023).
Values after ≈ are worked out from the molar mass of the structure shown. Read-outs that look alike come from different tables or passages of the source. Marks after values point to notes of the source that are not given here.

Columns and labels:
[1] = test system: S. agalactiae; assay: Growth inhibition test of SCFAs and MCFAs (Example 15); format: cell-based, Streptococcus agalactiae; conditions: for IC50: S. agalactiae
Protocol: (§1) Growth Inhibition Tests: Antipathogenic Properties of SCFAs and MCFAs. Growth inhibition tests to measure optical density (OD600) and calculate % inhibition efficiencies, minimum, and median inhibitory concentrations (MIC and IC50) were conducted as described previously. […] The PHA intermediates (SCFAs and MCFAs) are water-soluble, representing the PHA degradation products in the gastrointestinal tract of aquatic animals, allowing to assess the antipathogenic efficacy of PHA under the best scenario. The culture tubes were incubated at 30° C. under 150 rpm. The growths of tested strains in the absence of PHA intermediates were used as controls.

[2] = test system: V. campbellii and A. hydrophila; assay: Growth inhibition test of SCFAs and MCFAs, ranges over two G− pathogens (Example 15); format: cell-based, Vibrio campbellii; Aeromonas hydrophila; conditions: range over V. campbellii and A. hydrophila; for IC50: LB pH 6; for MIC: LB pH 6, 5-125 mM tested
Protocol: as §1

[3] = test system: Vibrio-challenged Artemia; assay: Artemia pathogen challenge test (Example 17); format: in vivo, Artemia franciscana; conditions: after three days; supplement 1 g/L; V. campbellii 10^8 cells/ml
Protocol: The pathogen challenge tests were designed to determine the effects of individual supplements on the survival of Vibrio-challenged Artemia. The pathogen challenge tests were conducted as described in the starvation tests, except that Artemia cultures (one day old) with each of the abovementioned supplements (1 g/L) were exposed to a lethal dose (10^8 cells/ml) of live V. campbellii as determined previously. In all treatments, 250 mg/L of yeast was added initially as a feed. Unchallenged and Vibrio-challenged Artemia were used as negative and positive controls, respectively. The survival of Artemia was monitored daily for three days.

[4] = test system: Bacillus megaterium; assay: Growth inhibition test in liquid medium (OD600); format: cell-based; conditions: B. megaterium; for MIC: pH 6.0, 30° C.; for IC50: 4-parameter logistic fit
Protocol: (§2) These compounds were used to assess the antimicrobial efficacy of PHB and chitosan under the best scenario. Various concentrations of PHB intermediates (5-125 mM), COS (0.2-3 mM), or mixtures of 3-HB+COS (i.e., Mixture 1 (4 mM 3-HB+0.1 mM COS), Mixture 2 (12 mM 3-HB+0.3 mM COS), Mixture 3 (24 mM 3-HB+0.6 mM COS), and Mixture 4 (60 mM 3-HB+1.5 mM COS)) were used based on previously in vitro antimicrobial studies using PHB or chitosan. For S. agalactiae and RHA1, tryptic soy broth (TSB) and Reasoner's 2A (R2A) media were used, respectively. The pH of all growth mediums (i.e., LB, TSB, or R2A) was adjusted to 6.0 based on the typical pH value found in aquatic animals' gut and the optimized antimicrobial activity of PHB. The culture tubes were inoculated with 2% v/v of the pre-grown strains (optical density (OD600) of 1.0) and incubated at 30° C. under 150 rpm. The bacterial growth was determined by absorbance at OD600. The growth of tested strains in the absence of PHB or chitosan intermediates were used as controls. The inhibition efficiency (%) was calculated using Eq. (1): […]
(§3) where ODcontrol and ODsample refer to the highest optical densities of the growth curves for the controls and samples, respectively.

[5] = test system: Streptococcus agalactiae; assay: Growth inhibition test in liquid medium (OD600); format: cell-based; conditions: S. agalactide; for MIC: pH 6.0, 30° C.
Protocol: as §2, §3

[6] = test system: Rhodococcus jostii RHA1; assay: Growth inhibition test in liquid medium (OD600); format: cell-based; conditions: R. jostii RHA1; for MIC: pH 6.0, 30° C.; for IC50: 4-parameter logistic fit
Protocol: as §2, §3

[7] = test system: Aeromonas hydrophila; assay: Growth inhibition test in liquid medium (OD600); format: cell-based; conditions: A. hydrophila; for IC50: 4-parameter logistic fit
Protocol: as §2, §3

[8] = test system: Escherichia coli; assay: Growth inhibition test in liquid medium (OD600); format: cell-based; conditions: E. coli; for MIC: pH 6.0, 30° C.
Protocol: as §2, §3

[9] = test system: Vibrio campbellii; assay: Growth inhibition test in liquid medium (OD600); format: cell-based
Protocol: as §2, §3

[10] = test system: V. campbellii and A. hydrophila; assay: Growth inhibition test, ranges stated over two G− pathogens (Example 8); format: cell-based, Vibrio campbellii; Aeromonas hydrophila; conditions: range over V. campbellii and A. hydrophila
Protocol: as §2, §3

[11] = Vibrio campbellii, read-out: Inhibition Efficiency (%)

CCCCC(=O)O [valerate]
IC50 [1]: 30.2 mM | IC50 [2]: 0.84 to 11.1 mM | MIC [2]: 62.4 to 77.9 mM | survival of Vibrio-challenged Artemia [3]: 10%

CCCCCCCC(=O)O [octanoate]
MIC ([1]; stated for all pathogenic growth, incl. S. agalactiae): < 5 mM | MIC [2]: < 5 mM | survival of Vibrio-challenged Artemia [3]: 80%

chitosan oligosaccharide lactate [COS]
Inhibition Efficiency (%) ([4]; 0.2 mM): 100% | Inhibition Efficiency (%) ([4]; 0.6 mM): 100% | Inhibition Efficiency (%) ([4]; 1.2 mM): 100% | Inhibition Efficiency (%) ([4]; 3 mM): 100% | MIC [4]: <0.2^c mM | Inhibition Efficiency (%) ([5]; 0.6 mM): 95.4 ± 0.01% | Inhibition Efficiency (%) ([5]; 1.2 mM): 100% | Inhibition Efficiency (%) ([5]; 3 mM): 100% | MIC [5]: 1.08 mM | Inhibition Efficiency (%) ([6]; 0.2 mM): 100% | Inhibition Efficiency (%) ([6]; 0.6 mM): 100% | Inhibition Efficiency (%) ([6]; 1.2 mM): 100% | Inhibition Efficiency (%) ([6]; 3 mM): 100% | MIC [6]: <0.2 mM | Inhibition Efficiency (%) ([7]; 0.2 mM): 4.81 ± 0.11% | Inhibition Efficiency (%) ([7]; 0.6 mM): −7.30 ± 0.40% | Inhibition Efficiency (%) ([7]; 1.2 mM): 77.6 ± 0.28% | Inhibition Efficiency (%) ([7]; 3 mM): 74.2 ± 0.61% | Inhibition Efficiency (%) ([8]; 0.2 mM): 60.6 ± 4.56% | Inhibition Efficiency (%) ([8]; 0.6 mM): 90.6 ± 0.91% | Inhibition Efficiency (%) ([8]; 1.2 mM): 100% | Inhibition Efficiency (%) ([8]; 3 mM): 100% | MIC [8]: 1.88 mM | Inhibition Efficiency (%) ([9]; 0.2 mM, V. campellii): 76.5 ± 1.13% | Inhibition Efficiency (%) ([9]; 0.6 mM, V. campellii): 93.0 ± 1.10% | Inhibition Efficiency (%) ([9]; 1.2 mM, V. campellii): 95.0 ± 0.23% | Inhibition Efficiency (%) ([9]; 3 mM, V. campellii): 100% | MIC ([9]; V. campellii, pH 6.0, 30° C.): 2.36 mM

CC(O)CC(=O)O (stereo not drawn) [3-HB, 3-hydroxybutyrate]
Inhibition Efficiency (%) ([4]; 5 mM): 6.52 ± 3.48% | Inhibition Efficiency (%) ([4]; 25 mM): −1.35 ± 1.04% | Inhibition Efficiency (%) ([4]; 50 mM): 12.9 ± 0.94% | Inhibition Efficiency (%) ([4]; 125 mM): 17.0 ± 14.4% | IC50 [4]: N.I. | MIC [4]: N.I. | Inhibition Efficiency (%) ([5]; 5 mM): 0.75 ± 0.01% | Inhibition Efficiency (%) ([5]; 25 mM): 0.75 ± 0.03% | Inhibition Efficiency (%) ([5]; 50 mM): 0.75 ± 0.01% | Inhibition Efficiency (%) ([5]; 125 mM): 13.8 ± 0.15% | MIC [5]: 945 mM (≈ 98400 µg/mL) | Inhibition Efficiency (%) ([6]; 5 mM): −32.3 ± 2.20% | Inhibition Efficiency (%) ([6]; 25 mM): −87.3 ± 4.00% | Inhibition Efficiency (%) ([6]; 50 mM): −61.7 ± 0.58% | Inhibition Efficiency (%) ([6]; 125 mM): 100% | IC50 [6]: N.I. | MIC [6]: N.I. | Inhibition Efficiency (%) ([7]; 5 mM): 2.7 ± 1.26% | Inhibition Efficiency (%) ([7]; 25 mM): 24.1 ± 2.70% | Inhibition Efficiency (%) ([7]; 50 mM): 31.1 ± 3.59% | Inhibition Efficiency (%) ([7]; 125 mM): 100% | IC50 [7]: 57.7 mM | MIC ([7]; pH 6.0, 30° C.): 133 mM (≈ 13800 µg/mL) | Inhibition Efficiency (%) ([8]; 5 mM): 2.68 ± 0.67% | Inhibition Efficiency (%) ([8]; 25 mM): 9.15 ± 3.12% | Inhibition Efficiency (%) ([8]; 50 mM): 24.5 ± 2.23% | Inhibition Efficiency (%) ([8]; 125 mM): 26.5 ± 1.34% | MIC [8]: 510 mM (≈ 53100 µg/mL) | Inhibition Efficiency (%) ([9]; 5 mM, V. campellii): 1.27 ± 1.07% | Inhibition Efficiency (%) ([9]; 25 mM, V. campellii): 14.0 ± 1.78% | Inhibition Efficiency (%) ([9]; 50 mM, V. campellii): 42.4 ± 5.88% | Inhibition Efficiency (%) ([9]; 125 mM, V. campellii): 100% | IC50 ([9]; V. campellii, 4-parameter logistic fit, read-out: IC50): 53 mM | MIC ([9]; V. campellii, pH 6.0, 30° C.): 111.5 mM (≈ 11600 µg/mL) | IC50 [10]: 53 to 58 mM | MIC [10]: 111.5 to 133 mM

CCCC(=O)O [Butyrate, butyrate]
inhibition at 5000 µM ([4]; Priestia megaterium, 5 mM, read-out: Inhibition Efficiency (%)): -5.8 ± 1.74% | inhibition at 25000 µM ([4]; Priestia megaterium, 25 mM, read-out: Inhibition Efficiency (%)): 15.5 ± 1.56% | inhibition at 50000 µM ([4]; Priestia megaterium, 50 mM, read-out: Inhibition Efficiency (%)): 100% | inhibition at 125000 µM ([4]; Priestia megaterium, 125 mM, read-out: Inhibition Efficiency (%)): 100% | IC50 ([4]; Priestia megaterium, read-out: IC50): 26.2 mM | MIC ([4]; Priestia megaterium, read-out: MIC): 53 mM (≈ 4670 µg/mL) | inhibition at 5000 µM ([5]; Streptococcus agalactiae, 5 mM, read-out: Inhibition Efficiency (%)): 0.75 ± 0.01% | inhibition at 25000 µM ([5]; Streptococcus agalactiae, 25 mM, read-out: Inhibition Efficiency (%)): 0.43 ± 0.15% | inhibition at 50000 µM ([5]; Streptococcus agalactiae, 50 mM, read-out: Inhibition Efficiency (%)): 10.2 ± 1.83% | inhibition at 125000 µM ([5]; Streptococcus agalactiae, 125 mM, read-out: Inhibition Efficiency (%)): 100% | IC50 ([5]; Streptococcus agalactiae, 4-parameter logistic fit): 83.4 mM | IC50 [6]: N.I. | MIC [6]: N.I. | inhibition at 5000 µM ([6]; Rhodococcus jostii, 5 mM, read-out: Inhibition Efficiency (%)): -25.2 ± 4.93% | inhibition at 25000 µM ([6]; Rhodococcus jostii, 25 mM, read-out: Inhibition Efficiency (%)): -70.8 ± 2.65% | inhibition at 50000 µM ([6]; Rhodococcus jostii, 50 mM, read-out: Inhibition Efficiency (%)): -92.2 ± 21.6% | inhibition at 125000 µM ([6]; Rhodococcus jostii, 125 mM, read-out: Inhibition Efficiency (%)): 100% | inhibition at 5000 µM ([7]; Aeromonas hydrophila, 5 mM, read-out: Inhibition Efficiency (%)): 0.8 ± 0.22% | inhibition at 25000 µM ([7]; Aeromonas hydrophila, 25 mM, read-out: Inhibition Efficiency (%)): 12.7 ± 1.8% | inhibition at 50000 µM ([7]; Aeromonas hydrophila, 50 mM, read-out: Inhibition Efficiency (%)): 72.4 ± 5.4% | inhibition at 125000 µM ([7]; Aeromonas hydrophila, 125 mM, read-out: Inhibition Efficiency (%)): 100% | IC50 ([7]; Aeromonas hydrophila): 39.7 mM | inhibition at 5000 µM ([8]; Escherichia coli, 5 mM, read-out: Inhibition Efficiency (%)): 5 ± 0.89% | inhibition at 25000 µM ([8]; Escherichia coli, 25 mM, read-out: Inhibition Efficiency (%)): 10.7 ± 12% | inhibition at 50000 µM ([8]; Escherichia coli, 50 mM, read-out: Inhibition Efficiency (%)): 23 ± 6.24% | inhibition at 125000 µM ([8]; Escherichia coli, 125 mM, read-out: Inhibition Efficiency (%)): 71.1 ± 8.25% | IC50 ([8]; Escherichia coli, 4-parameter logistic fit): 61.2 mM | IC50 ([9]; Vibrio campbellii): 3.82 mM | MIC ([9]; Vibrio campbellii, pH 6): 25.7 mM (≈ 2260 µg/mL) | inhibition at 5000 µM [9, 11]: 9.14 ± 8.9% | inhibition at 25000 µM [9, 11]: 100% | inhibition at 50000 µM [9, 11]: 100% | inhibition at 125000 µM [9, 11]: 100% | IC50 ([1]; Streptococcus agalactiae): 57.5 mM | IC50 [2]: 8.97 to 30.9 mM | survival of Vibrio-challenged Artemia [3]: 10% | IC50 [10]: 5.8 to 39.7 mM
